Read-outs that look alike come from different tables or passages of the source.
Key:
[1] = target: T1, HCMV polymerase (Human cytomegalovirus, UniProt P08546); experiment: biochemical
T1 construct: made in house; host or cells: recombinant baculovirus-infected SF-9 cells
Protocol: The HCMV polymerase assay is performed using a scintillation proximity assay (SPA) as described in several references, such as N. D. Cook, et al., Pharmaceutical Manufacturing International, pages 49-53 (1992); K. Takeuchi, Laboratory Practice, September issue (1992); U.S. Pat. No. 4,568,649 (1986); which are incorporated by reference herein. Reactions are performed in 96-well plates. The assay is conducted in 100 μl volume with 5.4 mM HEPE (pH 7.5), 11.7 mM KCl, 4.5 mM MgCl2, 0.36 mg/ml BSA, and 90 nM ^3H-dTTP. Assays are run with and without CHAPS, (3-[(3-cholamidopropyl)-dimethylammonio]-1-propane-sulfonate) at a final concentration of 2 mM. HCMV polymerase is diluted in enzyme dilution buffer containing 50% glycerol, 250 mM NaCl, 10 mM HEPES (pH 7.5), 100 μg/ml BSA, and 0.01% sodium azide. The HCMV polymerase, which is expressed in recombinant baculovirus-infected SF-9 cells and purified according to literature procedures, is added at 10% (or 10 μl) of the final reaction volume, i.e., 100 μl. Compounds are diluted in 50% DMSO and 10 μl are added to each well. Control wells contain an equivalent concentration of DMSO. Unless noted otherwise, reactions are initiated via the addition of 6 nM biotinylated poly(dA)-oligo(dT) template/primer to reaction mixtures containing the enzyme, substrate, and compounds of interest. Plates are incubated in a 25 C or 37 C H2O bath and terminated via the addition of 40 μl/reaction of 0.5 M EDTA (pH 8) per well. Reactions are terminated within the time-frame during which substrate incorporation is linear and varied depending upon the enzyme and conditions used, i.e., 30 min. for HCMV polymerase. Ten μl of streptavidin-SPA beads (20 mg/ml in PBS/10% glycerol) are added following termination of the reaction. Plates are incubated 10 min. at 37 ° C., then equilibrated to room temperature, and counted on a Packard Topcount. Linear regressions are performed and IC50's are calculated using computer software.
A modified version of the above HCMV polymerase assay is performed as described above, but with the following changes: Compounds are diluted in 100% DMSO until final dilution into assay buffer. In the previous assay, compounds are diluted in 50% DMSO. 4.5 mM dithiothreotol (DTT) is added to the polymerase buffer.

[2] = modified SPA assay: compounds diluted in 100% DMSO, 4.5 mM DTT in polymerase buffer, read-out: polymerase IC50 (μM) HCMV

T1 sequence (P08546 whole entry): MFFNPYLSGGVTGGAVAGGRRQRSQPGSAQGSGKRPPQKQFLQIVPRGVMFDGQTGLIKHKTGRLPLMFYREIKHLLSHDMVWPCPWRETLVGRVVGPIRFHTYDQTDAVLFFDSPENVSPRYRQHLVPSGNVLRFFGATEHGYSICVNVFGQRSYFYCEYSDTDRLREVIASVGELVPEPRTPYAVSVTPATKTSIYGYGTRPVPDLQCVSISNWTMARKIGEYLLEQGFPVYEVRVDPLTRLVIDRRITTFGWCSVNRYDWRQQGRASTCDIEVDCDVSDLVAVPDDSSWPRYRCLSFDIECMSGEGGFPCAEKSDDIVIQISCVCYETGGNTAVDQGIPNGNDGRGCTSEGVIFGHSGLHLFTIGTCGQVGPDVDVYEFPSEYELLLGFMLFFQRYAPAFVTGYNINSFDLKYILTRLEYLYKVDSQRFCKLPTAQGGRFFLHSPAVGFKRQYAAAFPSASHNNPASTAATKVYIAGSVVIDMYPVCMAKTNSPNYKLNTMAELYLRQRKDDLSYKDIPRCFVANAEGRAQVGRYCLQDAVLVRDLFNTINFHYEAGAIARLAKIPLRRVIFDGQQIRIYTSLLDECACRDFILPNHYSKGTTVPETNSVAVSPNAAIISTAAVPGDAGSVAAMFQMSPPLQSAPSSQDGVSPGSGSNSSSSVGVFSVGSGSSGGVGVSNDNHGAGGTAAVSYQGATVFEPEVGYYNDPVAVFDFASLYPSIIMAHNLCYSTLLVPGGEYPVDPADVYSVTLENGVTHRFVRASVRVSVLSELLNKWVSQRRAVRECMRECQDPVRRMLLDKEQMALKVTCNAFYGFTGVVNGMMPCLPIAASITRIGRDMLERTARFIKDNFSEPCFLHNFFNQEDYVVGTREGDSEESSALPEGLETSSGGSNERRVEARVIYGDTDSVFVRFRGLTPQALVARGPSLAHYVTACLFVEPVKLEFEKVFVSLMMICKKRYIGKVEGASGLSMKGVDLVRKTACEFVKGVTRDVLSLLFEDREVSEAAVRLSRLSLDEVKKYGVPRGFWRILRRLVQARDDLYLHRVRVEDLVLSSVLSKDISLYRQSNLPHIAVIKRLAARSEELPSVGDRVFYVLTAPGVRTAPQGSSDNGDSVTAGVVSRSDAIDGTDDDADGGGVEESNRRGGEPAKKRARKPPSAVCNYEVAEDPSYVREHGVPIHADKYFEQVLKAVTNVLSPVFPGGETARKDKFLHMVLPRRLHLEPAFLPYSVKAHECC

CCn1cc(C(=O)NCc2ccc(Cl)cc2)c(=O)c2cc(CN3CCOCC3)sc21 [Example 42, N-(4-Chlorobenzyl)-7-ethyl-2-(4-morpholinylmethyl)-4-oxo-4,7-dihydrothieno[2,3-b]pyridine-5-carboxamide]
melting point: 194 to 196 °C
IC50 [1, 2]: 1.9 µM

O=C(NCc1ccc(Cl)cc1)c1cnc2sc(C(=O)N3CCOCC3)cc2c1O [Example 47, N-(4-Chlorobenzyl)-4-hydroxy-2-(4-morpholinyl-carbonyl)-thieno[2,3-b]pyridine-5-carboxamide]
melting point: 217 to 219 °C
IC50 [1, 2]: > 20 µM

O=C(O)Cn1cc(C(=O)NCc2ccc(Cl)cc2)c(=O)c2cc(C#CCO)sc21 [Example 19, 2-[5-{[(4-Chlorobenzyl)amino]carbonyl}-2-(3-hydroxy-1-propynyl)4-oxothieno[2,3-b]pyridin-7(4H)-yl]acetic Acid]
melting point: 230 to 235 °C (dec.)
IC50 [1, 2]: 0.86 µM

Cn1cc(C(=O)NCc2ccc(Cl)cc2)c(=O)c2cc(CO)sc21 [Example 35, N-(4-Chlorobenzyl)-2-(hydroxymethyl)-7-methyl-4-oxo-4,7-dihydrothieno[2,3-b]pyridine-5-carboxamide]
melting point: 222 to 225 °C
IC50 [1, 2]: 18.5 µM

CN(Cc1cc2c(=O)c(C(=O)NCc3ccc(Cl)cc3)cn(C)c2s1)CC(O)c1ccc(O)cc1 (stereo not shown) [Example 39, N-(4-Chlorohenzyl)-2-(((2-hydroxy-2-(4-hydroxyphenyl)ethyl)(methyl)amino)methyl)-7-methyl-4-oxo-4,7-dihydrothieno[2,3-b]pyridine-5-carboxamide]
melting point: 187 °C
IC50 [1, 2]: < 0.31 µM

Cn1cc(C(=O)NCc2ccc(Cl)cc2)c(=O)c2cc(C#CCO)sc21 [Example 24, N-(4-Chlorobenzyl)-2-(3-hydroxy-1-propynyl)-7-methyl-4-oxo-4,7-dihydrothieno[2,3-b]pyridine-5-carboxamide]
melting point: 206 to 208 °C
IC50 [1, 2]: 1 µM

COC(=O)c1cc2c(O)c(C(=O)NCc3ccc(Cl)cc3)cnc2s1 [Example 33, Methyl 5-{[(4-Chlorobenzyl)amino]carbonyl}-4-hydroxythieno[2,3-b]pyridine-2-carboxylate]
melting point: 238 to 240 °C
IC50 [1, 2]: 22.4 µM

CCn1cc(C(=O)NCc2ccc(Cl)cc2)c(=O)c2cc(CCCO)sc21 [Example 16, N-(4-Chlorobenzyl)-7-ethyl-2-(3-hydroxypropyl)-4-oxo-4,7-dihydrothieno [2,3-b] pyfidine-5-carboxamide]
melting point: 144 to 146 °C
IC50 [1, 2]: 0.67 µM

O=C(NCc1ccc(Cl)cc1)c1cnc2sc(I)cc2c1O [Example 2, N-(4-Chlorobenzyl)-4-hydroxy-2-iodothieno[2,3-b]pyridine-5-carboxamide]
melting point: 231 to 232 °C (dec.)
IC50 [1, 2]: 6.3 µM

O=C(NCc1ccc(Cl)cc1)c1cnc2sc(CO)cc2c1O [Example 34, N-(4-Chlorobenzyl)-4-hydroxy-2-(hydroxymethyl)thieno[2,3-b]pyridine-5-carboxamide]
melting point: 205 to 210 °C
IC50 [1, 2]: > 20 µM

O=C(NCc1ccc(Cl)cc1)c1cnc2sc(CN3CCOCC3)cc2c1O [Example 41, N-(4-Chlorobenzyl)-4-hydroxy-2-(4-morpholinylmethyl)-thieno[2,3-b]pyridine-5-carboxamide]
melting point: 193 to 195 °C
IC50 [1]: 3.4 µM

COC(=O)C(CC#Cc1cc2c(O)c(C(=O)NCc3ccc(Cl)cc3)cnc2s1)C(=O)OC [Example 10, Dimethyl 2-[3-(5-{[(4-Chlorobenzyl)amino]carbonyl}-4-hydroxythieno[2,3-b]pyridin-2-yl)-2-propynyl]malonate]
melting point: 197 to 198 °C
IC50 [1, 2]: 34.3 µM

CCn1cc(C(=O)NCc2ccc(Cl)cc2)c(=O)c2cc(C#CCOC(=O)CCC(=O)O)sc21 [Example 29, 4-{[3-(5-{[(4-Chlorobenzyl)amino]carbonyl}-7-ethyl-4-oxo-4,7-dihydrothieno[2,3-b]pyridin-2-yl)-2-propynyl]oxy}-4-oxobutanoic Acid]
melting point: 180 to 182 °C
IC50 [1, 2]: 6.5 µM

CCn1cc(C(=O)NCc2ccc(Cl)cc2)c(=O)c2cc(C#CCO)sc21 [Example 14, N-(4-Chlorobenzyl)-7-ethyl-2-(3-hydroxy-1-propynyl)-4-oxo4,7-dihydrothieno[2,3-b]pyridine-5-carboxamide]
melting point: 217 to 219 °C
IC50 [1, 2]: 1.8 µM

O=C(NCc1ccc(Cl)cc1)c1cn(CC2CCCO2)c2sc(CN3CCOCC3)cc2c1=O (stereo not shown) [Example 52]
melting point: 191 to 195 °C
IC50 [1, 2]: 1.5 µM

O=C(NCc1ccc(Cl)cc1)c1cnc2sc(S(=O)(=O)N3CCOCC3)cc2c1O [Example 3, N-(4-Chlorobenzyl)-4-hydroxy-2-(4-morpholinylsulfonyl)-thieno[2,3-b]pyridine-5-carboxamide]
melting point: > 300 °C
IC50 [1, 2]: 15.9 µM

Cn1cc(C(=O)NCc2ccc(Cl)cc2)c(=O)c2cc(I)sc21 [Example 23, N-(4-Chlorobenzyl)-2-iodo-7-methyl-4-oxo-4,7-dihydrothieno[2,3-b]pyridine-5-carboxamide]
melting point: 236 to 237 °C
IC50 [1, 2]: 2.9 µM

O=C(NCc1ccc(Cl)cc1)c1cn(CCCc2ccccc2)c2sc(CN3CCOCC3)cc2c1=O [Example 51, N-(4-Chlorobenzyl)-2-(4-morpholinylmethyl)-4-oxo-7-(3-phenylpropyl)-4,7-dihydrothieno[2,3-b]pyridine-5-carboxamide]
melting point: 169 to 171 °C
IC50 [1, 2]: 1.2 µM

Cn1cc(C(=O)NCc2ccc(Cl)cc2)c(=O)c2cc(C(=O)N3CCOCC3)sc21 [Example 48, N-(4-Chlorobenzyl)-7-methyl-2-(4-morpholinyl-carbonyl)-4 dothieno[2,3-b]pyridine-5-carboxamide]
melting point: 244 to 245 °C (dec.)
IC50 [1, 2]: 19 µM

CC(C)n1cc(C(=O)NCc2ccc(Cl)cc2)c(=O)c2cc(CCCO)sc21 [Example 28, N-(4-Chlorobenzyl)-2-(3-hydroxypropyl)-7-isopropyl-4-oxo4,7-dihydrothieno[2,3-b]pyridine-5-carboxamide]
melting point: 84 to 92 °C
IC50 [1, 2]: 2.4 µM

O=C(NCc1ccc(Cl)cc1)c1cn(CCO)c2sc(CCCO)cc2c1=O [Example 21, N-(4-Chlorobenzyl)-7-(2-hydroxyethyl)-2-(3-hydroxypropyl)4-oxo-4,7-dihydrothieno[2,3-b]pyridine-5-carboxamide]
melting point: 174 to 178 °C
IC50 [1, 2]: < 0.78 µM

CCn1cc(C(=O)NCc2ccc(Cl)cc2)c(=O)c2cc(I)sc21 [Example 13, N-(4-Chlorobenzyl)-7-ethyl-2-iodo-4-oxo-4,7-dihydrothieno[2,3-b]pyridine-5-carboxamide]
melting point: 214 to 218 °C
IC50 [1, 2]: 9 µM

O=C(NCc1ccc(Cl)cc1)c1cn(Cc2cccnc2)c2sc(CN3CCOCC3)cc2c1=O [Example 54, N-(4-Chlorobenzyl)-2-(4-morpholinylmethyl)-4-oxo-7-(3-pyridinylmethyl)-4,7-dihydrothieno[2,3-b]pyridine-5-carboxamide]
melting point: 214 to 215 °C
IC50 [1, 2]: 3.2 µM

Source: patent US6495683B2, “4-oxo-4,7-dihydro-thieno[2,3-b]pyridine-5-carboxamides as antiviral agents” (Pharmacia and Upjohn Company, priority 1999, dated 2002)
